The values that follow come from US9200319B2, “Nucleotides and nucleosides and methods for their use in DNA sequencing” (Lasergen, Inc., priority 2008, dated 2015).

One assay in a line: chemical cleavage by palladium-catalysed hydrogenolysis. Conditions: heterogenous catalyst, palladium on activated carbon (10 wt. %), hydrogen, ethanol, room temperature; TLC/HPLC. On the procedure: Chemical Cleavage Using Heterogenous Palladium Catalyst: To a solution of 5-(benzyloxy)methyl-2′-deoxyuridine (29 mg, 0.082 mmol) in absolute ethanol (2 mL) under a nitrogen atmosphere was added 10 mg of palladium on activated carbon (10 wt. %, 10 mg) (CAUTION: flammable solid! Ensure handling in oxygen-free atmosphere). The mixture was flushed with hydrogen gas and stirred at room temperature for 30 minutes while being monitored by TLC every five minutes. The mixture was filtered, concentrated under reduced pressure, and dried under vacuum to yield thymidine (18 mg, 88%) that was identified by comparison to the authentic sample (TLC and ^1H NMR).
Chemical Cleavage Using Homogenous Palladium Catalyst: To a solution of 5-(benzyloxy)methyl-2′-deoxyuridine (3.48 mg, 0.01 mmol) in absolute ethanol (0.1 mL) under a nitrogen atmosphere a solution of sodium tetrachloropalladate (II) (0.6 mg, 0.002 mmol) in absolute ethanol (0.9 mL) was added. The mixture was flushed with hydrogen gas and stirred at room temperature while being monitored by TLC every five minutes. After 20 minutes TLC indicated complete disappearance of starting material. The sole cleavage product was identified to be thymidine by comparison to the authentic sample on TLC.
(§1) Chemical Cleavage Using Heterogenous Palladium Catalyst: To a solution of 5-(2-isopropylbenzyloxy)methyl-2′-deoxyuridine in absolute ethanol (10 mM, 1 mL) under a nitrogen atmosphere was added of palladium on activated carbon (10 wt. %, 2 mg) (CAUTION: flammable solid! Ensure handling in oxygen-free atmosphere). The mixture was flushed with hydrogen gas and stirred at room temperature for five minutes while being monitored by TLC every one minute. After five minutes TLC indicated complete disappearance of starting material. The sole cleavage product was identified to be thymidine by comparison to the authentic sample on TLC.
as §1, with “To” for “To a”, “5-(2-phenylbenzyloxy)methyl-2′-deoxyuridine” for “5-(2-isopropylbenzyloxy)methyl-2′-deoxyuridine”, “added” for “added of”, “1” for “one”
as §1, with “5-(2,6-dimethylbenzyloxy)methyl-2′-deoxyuridine” for “5-(2-isopropylbenzyloxy)methyl-2′-deoxyuridine”, “added” for “added of”, “1” for “one”
To a solution of 5-benzyloxy-2′-deoxyuridine (10 mg) in ethanol (1 mL) was added Pd/C (10%, 10 mg), and the mixture was stirred for five minutes. Hydrogen was introduced to the system via a balloon and the reaction mixture was stirred at room temperature. Aliquots (5 μL) were taken out from the reaction mixture at various time point intervals and were analyzed by thin layer chromatography and HPLC. Complete cleavage to thymidine was observed after ten minutes at room temperature (Scheme 42 and FIG. 4). The intermediate of the cleavage was identified to be 5-hydroxymethyl-dU generated from initial removal of benzyl group, and HOMedU was further reduced to thymidine. […]
Take `CC(C)c1ccccc1COCc1cn([C@H]2C[C@H](O)[C@@H](CO)O2)c(=O)[nH]c1=O` [5-(2-isopropylbenzyloxy)methyl-2′-deoxyuridine]: the “time to complete cleavage to thymidine” value was “five”.
Same read-out and setting: the value for `CC(C)C(OCc1cn([C@H]2C[C@H](O)[C@@H](CO)O2)c(=O)[nH]c1=O)c1ccccc1` (stereo partly drawn) [5-(1-phenyl-2-methyl-propyloxy)methyl-2′-deoxyuridine] was 240 min.
Same read-out and setting: under `O=c1[nH]c(=O)n([C@H]2C[C@H](O)[C@@H](CO)O2)cc1COCc1ccccc1-c1ccccc1` [5-(2-phenylbenzyloxy)methyl-2′-deoxyuridine] stands “five”; under `Cc1cccc(C)c1COCc1cn([C@H]2C[C@H](O)[C@@H](CO)O2)c(=O)[nH]c1=O` [5-(2,6-dimethylbenzyloxy)methyl-2′-deoxyuridine], “five”; under `O=c1[nH]c(=O)n([C@H]2C[C@H](O)[C@@H](CO)O2)cc1COCc1ccccc1` [5-(benzyloxy)methyl-2′-deoxyuridine], “ten”.

Still in this assay, the particulars now being: homogenous catalyst, sodium tetrachloropalladate (II), hydrogen, ethanol, room temperature; TLC.
Take `O=c1[nH]c(=O)n([C@H]2C[C@H](O)[C@@H](CO)O2)cc1COCc1ccccc1` [5-(benzyloxy)methyl-2′-deoxyuridine]: the “time to complete disappearance of starting material (cleavage to thymidine)” value was determined as 20 min.
